In patent US9181232B2, “Difluoro-hexahydro-cyclopentaoxazinyls and difluoro-hexahydro-benzooxazinyls as BACE1 inhibitors” (Hoffmann-La Roche Inc., priority 2012, dated 2015) one finds efflux ratio data, which are given here for two compounds.

This data set addresses T1, P-gp (human MDR1) (Homo sapiens, UniProt P08183).
T1 construct: host or cells: LLC-PK1 (porcine kidney epithelial) transfected with human MDR1 (L-MDR1)
Description: P-gp (P-Glycoprotein) assay, bidirectional transcellular transport in LLC-PK1 and L-MDR1 cells. Format: in vitro ADME. The note with it: read-out: P-gp human, efflux ratio: substrate category. The procedure:
The LLC-PK1 cell line (ATCC #CL-101) is a porcine kidney epithelial cell line. The MDR1 (Human multidrug resistance protein 1) transfected cell lines were obtained from Dr. A. Schinkel, The Netherlands Cancer Institute (Amsterdam, The Netherlands). All cell lines were cultured on permeable inserts (96-insert plates Millipore, 0.11 cm^2 area, pore size 0.4 μm) at 0.73*10^6 cells/ml. Transport measurements were performed at day 4 after seeding. Tightness of the cell monolayer was controlled via the permeability of the extracellular marker lucifer yellow (10 μM).
Bidirectional transcellular transport using LLC-PK1 and L-MDR1 LLC-PK1 cells exogenously expressing the human MDR1)
The experiments were performed on a TECAN automated liquid handling system. […] Concentrations of substrate in both compartments were determined by scintillation counting (digoxin) or by LC-MS/MS. The extracellular marker (lucifer yellow) was quantified using a spectrafluor plus reader at 430/535 nm (Ex/Em). In each experiment 3 different inserts were used for each condition and a mean was calculated. […]
Where Papp, A, C0, and dQ/dt represent the apparent permeability, the filter surface area, the initial concentration, and the amount transported per time period, respectively. Papp values were calculated on the basis of a single time point (2 h).
Transport efflux ratios (ER) were calculated as follows: […]

T1 sequence (P08183 whole entry): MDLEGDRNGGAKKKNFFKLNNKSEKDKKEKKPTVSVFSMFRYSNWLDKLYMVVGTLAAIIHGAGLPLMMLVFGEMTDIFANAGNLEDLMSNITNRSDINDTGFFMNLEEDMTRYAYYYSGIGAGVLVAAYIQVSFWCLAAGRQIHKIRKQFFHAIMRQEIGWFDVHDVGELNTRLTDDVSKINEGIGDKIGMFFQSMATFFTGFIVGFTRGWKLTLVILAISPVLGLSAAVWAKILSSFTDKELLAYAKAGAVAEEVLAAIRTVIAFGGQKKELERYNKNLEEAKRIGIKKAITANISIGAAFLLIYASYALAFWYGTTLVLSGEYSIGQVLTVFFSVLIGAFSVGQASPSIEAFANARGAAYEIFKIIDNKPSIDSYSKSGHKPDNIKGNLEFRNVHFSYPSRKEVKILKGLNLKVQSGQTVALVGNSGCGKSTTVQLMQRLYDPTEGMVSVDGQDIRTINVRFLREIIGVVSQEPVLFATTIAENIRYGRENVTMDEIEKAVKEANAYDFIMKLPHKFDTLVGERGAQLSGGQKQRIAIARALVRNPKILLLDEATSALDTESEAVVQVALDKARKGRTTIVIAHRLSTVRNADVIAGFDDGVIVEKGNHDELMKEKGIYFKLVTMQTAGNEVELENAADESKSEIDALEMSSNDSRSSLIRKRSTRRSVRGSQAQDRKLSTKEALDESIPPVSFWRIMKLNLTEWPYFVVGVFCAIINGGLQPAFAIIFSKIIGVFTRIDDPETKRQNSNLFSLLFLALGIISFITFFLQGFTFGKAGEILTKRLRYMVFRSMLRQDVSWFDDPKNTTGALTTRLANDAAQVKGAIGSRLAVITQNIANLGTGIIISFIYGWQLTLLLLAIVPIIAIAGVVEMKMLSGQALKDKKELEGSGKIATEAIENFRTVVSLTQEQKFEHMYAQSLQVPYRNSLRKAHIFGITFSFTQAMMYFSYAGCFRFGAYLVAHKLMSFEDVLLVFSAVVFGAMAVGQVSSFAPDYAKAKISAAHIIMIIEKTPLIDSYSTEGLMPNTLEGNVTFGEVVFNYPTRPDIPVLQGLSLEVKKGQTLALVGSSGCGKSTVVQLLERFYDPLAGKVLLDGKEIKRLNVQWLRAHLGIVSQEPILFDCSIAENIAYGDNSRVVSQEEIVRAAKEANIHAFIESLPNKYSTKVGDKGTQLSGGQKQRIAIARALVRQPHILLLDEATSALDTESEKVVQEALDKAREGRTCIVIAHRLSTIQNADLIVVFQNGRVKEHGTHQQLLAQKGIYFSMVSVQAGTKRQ

Consider `CC#CCOc1cnc(C(=O)Nc2ccc(F)c([C@@]3(C)N=C(N)O[C@@H]4CCC(F)(F)[C@@H]43)c2)cn1` [Example 1, 5-But-2-ynyloxy-pyrazine-2-carboxylic acid [3-((4S,4aR,7aR)-2-amino-5,5-difluoro-4-methyl-4,4a,5,6,7,7a-hexahydro-cyclopenta[e][1,3]oxazin-4-yl)-4-fluoro-phenyl]-amide], for which the efflux ratio at 2 h lay within 3 to 10.
The result for `C[C@]1(c2cc(NC(=O)c3ccc(C#N)cn3)ccc2F)N=C(N)O[C@@H]2CCC(F)(F)[C@@H]21` [Example 2, 5-Cyano-pyridine-2-carboxylic acid [3-((4S,4aR,7aR)-2-amino-5,5-difluoro-4-methyl-4,4a,5,6,7,7a-hexahydro-cyclopenta[e][1,3]oxazin-4-yl)-4-fluoro-phenyl]-amide] reads 3 to 10.
